Source: ChEMBL document CHEMBL5321293, “Discovery of ERD-3111 as a Potent and Orally Efficacious Estrogen Receptor PROTAC Degrader with Strong Antitumor Activity” (J Med Chem, 2023)

Key:
[1] = Drug concentration in tumor of CB17 SCID mouse xenografted with human MCF7 cells harboring wild type ESR1 at 10 mg/kg, po qd for 3 days and measured after 24 hrs last dose by LC-MS/MS analysis; assay type: ADME, organism-based, Neoplasm; conditions: time 3 day, read-out: Ct
[2] = Drug concentration in plasma of CB17 SCID mouse xenografted with human MCF7 cells harboring wild type ESR1 at 10 mg/kg, po qd for 3 days and measured after 24 hrs last dose by LC-MS/MS analysis; assay type: ADME, organism-based; conditions: time 3 day
Cytochrome P450 1A2 = target: T1, Cytochrome P450 1A2 (Homo sapiens, UniProt P05177); assay: Inhibition of CYP1A2 in human liver microsomes preincubated for 5 mins in presence substrate followed by NADPH addition and measured after 10 mins by LC-MS/MS analysis; assay type: ADME, Microsome
T1 sequence (P05177 whole entry): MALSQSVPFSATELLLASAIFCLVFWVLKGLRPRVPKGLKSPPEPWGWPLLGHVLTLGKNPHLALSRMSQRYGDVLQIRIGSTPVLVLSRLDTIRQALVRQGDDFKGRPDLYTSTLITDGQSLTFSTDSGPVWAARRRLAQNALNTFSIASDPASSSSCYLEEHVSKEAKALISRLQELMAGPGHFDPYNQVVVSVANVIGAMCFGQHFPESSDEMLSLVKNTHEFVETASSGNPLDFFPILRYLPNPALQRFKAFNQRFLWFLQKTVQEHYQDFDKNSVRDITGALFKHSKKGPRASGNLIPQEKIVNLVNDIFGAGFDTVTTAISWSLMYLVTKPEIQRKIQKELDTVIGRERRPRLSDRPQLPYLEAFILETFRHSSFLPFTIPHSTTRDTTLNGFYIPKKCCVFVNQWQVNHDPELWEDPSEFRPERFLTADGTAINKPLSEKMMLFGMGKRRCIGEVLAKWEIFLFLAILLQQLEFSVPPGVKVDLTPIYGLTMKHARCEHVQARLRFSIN

MCF7 [3] = assay: Antitumor activity against human MCF7 cells harboring wild type ESR1 xenografted in CB17 SCID mouse assessed as tumor growth inhibition at 10 mg/kg, po qd for 5 weeks and measured 3 weeks post last dose; assay type: functional; conditions: MCF7, 840 h, read-out: TGI
[4] = Toxicity in CB17 SCID mouse xenografted with human MCF7 cells harboring ESR1 Y537S mutant assessed as body weight change at 10 mg/kg,po qd for 4 weeks; assay type: organism-based; conditions: in vivo, 672 h
[5] = Drug concentration in tumor of CB17 SCID mouse xenografted with human MCF7 cells harboring wild type ESR1 at 30 mg/kg, po qd for 3 days and measured after 24 hrs last dose by LC-MS/MS analysis; assay type: ADME, organism-based, Neoplasm; conditions: time 3 day, read-out: Ct
MCF7 [6] = assay: Antitumor activity against human MCF7 cells harboring wild type ESR1 xenografted in CB17 SCID mouse assessed as tumor growth inhibition at 30 mg/kg, po qd for 5 weeks and measured 3 weeks post last dose; assay type: functional; conditions: MCF7, 840 h, read-out: TGI
[7] = Clearance in Sprague-Dawley rat at 1 mg/kg, iv and measured upto 24 hrs by LC-MS/MS analysis; conditions: in vivo
[8] = Drug concentration in plasma of CB17 SCID mouse xenografted with human MCF7 cells harboring wild type ESR1 at 30 mg/kg, po qd for 3 days and measured after 24 hrs last dose by LC-MS/MS analysis; assay type: ADME, organism-based; conditions: time 3 day
[9] = Drug concentration in plasma of CB17 SCID mouse xenografted with human MCF7 cells harboring ESR1 D538G mutant at 10 mg/kg, po qd for 3 days and measured after 6 hrs last dose by LC-MS/MS analysis; assay type: ADME, organism-based; conditions: time 3 day
[10] = Downregulation of ERalpha protein expression in tumor of CB17 SCID mouse xenografted with human MCF7 cells harboring wild type ESR1 at 10 mg/kg, po qd for 3 days and measured after 24 hrs last dose by Western blot analysis relative to control; assay type: functional; conditions: time 3 day
[11] = Oral bioavailability in Beagle dog at 1 mg/kg and measured upto 24 hrs by LC-MS/MS analysis; assay type: ADME, organism-based, Canis lupus familiaris; conditions: in vivo

C[C@@H]1Cc2c(ccc3[nH]ncc23)[C@@H](c2c(F)cc(N3CCC4(CCN(C(=O)CN5Cc6cc7c(cc6C5)C(=O)N(C5CCC(=O)NC5=O)C7=O)CC4)CC3)cc2F)N1CC(F)F (some centres not stated)
concentration at 72 h [1]: 162 ng/mL
concentration at 72 h [2]: 18 ng/mL
IC50 (Cytochrome P450 1A2): > 10 µM
inhibition in vivo at 10 mg/kg (MCF7 [3]): 13%
Activity [4]: Non-Toxic
concentration at 72 h [5]: 413 ng/mL
inhibition in vivo at 30 mg/kg (MCF7 [6]): 42%
clearance at 24 h [7]: 7.4 mL/min/kg
concentration at 72 h [8]: 80 ng/mL
concentration at 72 h [9]: 609 ng/mL
Activity [10]: 70%
bioavailability [11]: 66%
